# No end group written: not given here.
# System: not listed separately
# Test: physchem
# Conditions: not given
row,Substance,solubility
1,"SGKAFGAMAKKGQED [Ber01, SGKAFGAMAKKGQED]",> 20000 µg/mL

# System: not listed separately
# Test: Solubility of peptides
# Conditions: not given
row,Substance,solubility
1,FIPMKSSWGA [Ber02],> 20000 µg/mL
2,KDSDEFIPMKSSWGAIWR [Ber02B],> 20000 µg/mL
3,KFIPTLVAAVKQAYAAKQ [Bio03A],> 20000 µg/mL
4,KKPEVKYAVFEAALTKAIT [Rye09B2],10000 µg/mL
5,KPEVKYAVFEAALTKAIT [Rye09B1],10000 µg/mL
6,KSSWGAIWRIDPKKPLK [Ber02C],> 20000 µg/mL
7,KYDAYVATLTEALR [Bio02A],> 20000 µg/mL
8,LKKAVTAMSEAEK [Bio04A],> 20000 µg/mL
9,NAGFKAAVAAAANAPPK [Rye05C],10000 µg/mL
10,PEVKYAVFEAALTKAIT [Rye09B],5000 µg/mL
11,WGAIWRIDTPDKL [Tim04A],2000 µg/mL

# System: peripheral blood mononuclear cells (PBMCs) from grass allergic individuals
# Test: In vitro T cell cytokine release assay (IFN-γ, IL-10, IL-13) in PBMC cultures
# Assay type: cell-based, human
# Conditions: single peptide; group of 28 subjects
row,Substance,≧9/28 +ve for one or more cytokine?
1,"Bio04: Group 5 peptide of Table 2, sequence only in drawing (TALKKAVTAMSEAEKEA)",Yes
2,"Bio05: Group 5 peptide of Table 2, sequence only in drawing (NDKFTVFESAFNKALNE)",Yes

# Same assay, conditions: single peptide; number of 28 grass allergic subjects positive (reading > four times control well)
Substance,IFN-γ +ve/28,IL-10 +ve/28,IL-13 +ve/28
"Bio04: Group 5 peptide of Table 2, sequence only in drawing (TALKKAVTAMSEAEKEA)",12 +ve/28,8 +ve/28,5 +ve/28
"Bio05: Group 5 peptide of Table 2, sequence only in drawing (NDKFTVFESAFNKALNE)",11 +ve/28,1 +ve/28,5 +ve/28

# Source: patent US8753644B2, “Grass peptides for vaccine” (Circassia Limited, priority 2009, dated 2014)
